Reference: patent US12514865B2, “Biomaterial-based antigen free vaccine and the use thereof” (President and Fellows of Harvard College, priority 2019, dated 2026)

Legend:
4T1 cells = assay: In vitro immunogenic cell death assay; assay type: cell-based; settings: 24 h
Experimental: 4T1 cells were incubated with different concentrations of Dox at 37° C. for 24 h. Cells without drug treatment were used as controls. Cells were washed with PBS for three times, collected, and stained with FITC-conjugated anti-CD47, Alex Fluor 647-conjugated anti-calreticulin, and fixable viability dye efluor780 for 20 min prior to FACS analyses.

[1] = Release of Dox-iRGD or Dox from pore-forming alginate gels; assay type: physicochemical; settings: in vitro, DMEM 37 °C
4T1 tumors = assay: Tumor penetration study of Dox-iRGD; assay type: in vivo, Balb/c mice; settings: released from peritumorally injected gels with GM-CSF, confocal imaging
Experimental: 4T1 cells (0.6 million) in HBSS buffer were subcutaneously injected into the right flank of Balb/c mice. After 5 days, pore-forming alginate gels loaded with GM-CSF (3 μg)+Dox-iRGD (50 μg in Dox-equivalent) or GM-CSF+Dox-iRDG or GM-CSF+Dox were injected next to the tumors. After 48 h, gels and tumors were harvested and frozen with O.C.T. compound, and sectioned with a thickness of 8 μm. To determine the tumor penetration of drugs, tissue sections were stained with DAPI for 10 min and imaged under a confocal microscope.

[2] = In vitro encapsulation and release of biomolecules from the cryogel vaccine; assay type: physicochemical
Experimental: To determine the incorporation efficiency and release kinetics of Cpg-odn, GM-CSF and antigen from cryogel vaccines, gels were incubated in lml of sterile PBS at 37° C. with shaking. Media was replaced periodically. Micro-BCA (Pierce Biotechnology) was used to quantify total protein content. GM-CSF and Cpg-odn released in the supernatant were detected by ELISA (Invitrogen) and OliGreen assay (Invitrogen), respectively. The amount of antigen was determined by subtracting total protein content from the amount of GM-CSF quantified by ELISA.

Molecule | expression of CD47 (4T1 cells) | cell-surface calreticulin (4T1 cells; 0-100 nM) | released from pore-forming alginate gel within 6 h [1] [%] | released from pore-forming alginate gel within 24 h [1] | tumor penetration / accumulation in tumor tissues (4T1 tumors) | released over the first 5 days in vitro ([2]; from cryogel) [%] | encapsulation efficiency ([2]; in MA-PEG/MA-alginate vaccine cryogel) [%] | burst release of the loaded amount ([2]; in vitro, from cryogel)
COc1cccc2c1C(=O)c1c(O)c3c(c(O)c1C2=O)C[C@@](O)(C(=O)CO)C[C@@H]3O[C@H]1C[C@H](N)[C@H](O)[C@H](C)O1 [Dox, doxorubicin] | increased expression of the anti-phagocytic marker CD47 | upregulated cell-surface calreticulin | ~30 | more than 60% | negligible accumulation | – | – | –
GM-CSF: cytokine granulocyte-macrophage colony-stimulating factor (PeproTech) | – | – | – | – | – | 85 | 87 | about 8%
